Experimental data published in the supplement of paper PMC10307832.

Compound: COc1nc(N)nc2c1ncn2[C@@H]1O[C@H](CO)[C@@H](O)[C@@H]1O [Nelarabine] + COc1cccc2cc(-c3nc([C@H]4CC[C@H](C(=O)O)CC4)n4ncnc(N)c34)[nH]c12 [OSI-027] (partner 0.5 µM)
Experiment: relative viability (nuclei count vs DMSO), 5 days (fraction); higher = more cells survive
Settings: first compound 0.01 µM
Summary of the method: (§1)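 Lung cancer cell lines were seeded in 1536-well plates and dosed by pin tool the next day, with either a single drug or a fixed anchor-drug dose combined with five library-drug doses (not always all listed) spaced in √10 steps. Five days later, one step fixed the cells and stained their nuclei (final 0.05% Triton X-100, 1% formaldehyde, 1 ug/ml Hoechst), and nuclei were counted on 4× images. Relative viability is the nuclei count in treated wells divided by the count in vehicle wells, and each value is the median of duplicate plates.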

Cell Line	relative viability
NCI-H1975	0.791
NCI-H1993	0.596
NCI-H2009	0.767
NCI-H2023	0.545
NCI-H2085	0.945
NCI-H2087	0.568
NCI-H2126	0.761
NCI-H2228	0.949
NCI-H2347	0.505
NCI-H2405	0.722
NCI-H3122	1.34
PC-3 [JPC-3]	0.854
PC-14	1.41
RERF-LC-KJ	0.654
SK-LU-1	0.287
SK-MES-1	0.698
SW 1573	1.19
UMC-11	0.655

Same assay, conditions: first compound 0.03162 µM

Cell Line	relative viability
NCI-H520	0.233
NCI-H596	0.668
NCI-H647	0.683
NCI-H650	0.529
NCI-H661	0.652
NCI-H727	0.722
NCI-H838	0.377
NCI-H1355	0.434
NCI-H1437	0.859
NCI-H1563	0.722
NCI-H1651	0.677
NCI-H1666	0.955
NCI-H1734	0.609
NCI-H1755	0.642
NCI-H1792	0.773
NCI-H1915	0.666
NCI-H1944	0.436
NCI-H1975	0.55

Cell Line	relative viability
NCI-H1993	0.502
NCI-H2009	0.643
NCI-H2023	0.397
NCI-H2085	0.849
NCI-H2087	0.639
NCI-H2126	0.724
NCI-H2228	0.635
NCI-H2347	0.431
NCI-H2405	0.66
NCI-H3122	1.01
PC-3 [JPC-3]	0.604
PC-14	0.97
RERF-LC-KJ	0.524
SK-LU-1	0.267
SK-MES-1	0.579
SW 1573	0.836
UMC-11	0.569

Same assay, conditions: first compound 0.1 µM

Cell Line	relative viability
NCI-H520	0.233
NCI-H596	0.698
NCI-H647	0.68
NCI-H650	0.48
NCI-H661	0.738
NCI-H727	0.534
NCI-H838	0.324
NCI-H1355	0.367
NCI-H1437	0.845
NCI-H1563	0.785
NCI-H1651	0.727
NCI-H1666	0.89
NCI-H1734	0.547
NCI-H1755	0.699
NCI-H1792	0.75
NCI-H1915	0.678
NCI-H1944	0.442

Cell Line	relative viability
NCI-H1975	0.87
NCI-H1993	0.551
NCI-H2009	0.546
NCI-H2023	0.341
NCI-H2085	0.664
NCI-H2087	0.489
NCI-H2126	0.641
NCI-H2347	0.409
NCI-H2405	0.471
PC-3 [JPC-3]	0.73
PC-14	0.936
RERF-LC-KJ	0.505
SK-LU-1	0.364
SK-MES-1	0.62
SW 1573	0.548
UMC-11	0.586

Same assay, conditions: first compound 0.3162 µM

Cell Line	relative viability
NCI-H520	0.395
NCI-H596	0.692
NCI-H647	0.68
NCI-H650	0.563
NCI-H661	0.775
NCI-H727	0.562
NCI-H838	0.426
NCI-H1355	0.363
NCI-H1437	0.948
NCI-H1563	0.739
NCI-H1651	0.874
NCI-H1666	0.915
NCI-H1734	0.582
NCI-H1755	0.835
NCI-H1792	0.904
NCI-H1915	0.706
NCI-H1944	0.426
NCI-H1975	0.834

Cell Line	relative viability
NCI-H1993	0.567
NCI-H2009	0.696
NCI-H2023	0.416
NCI-H2085	0.797
NCI-H2087	0.676
NCI-H2126	0.771
NCI-H2228	0.784
NCI-H2347	0.389
NCI-H2405	0.632
NCI-H3122	1.11
PC-3 [JPC-3]	0.744
PC-14	1.22
RERF-LC-KJ	0.59
SK-LU-1	0.396
SK-MES-1	0.683
SW 1573	0.701
UMC-11	0.476

Same assay, conditions: first compound 1 µM

Cell Line	relative viability
NCI-H520	0.264
NCI-H596	0.792
NCI-H647	0.571
NCI-H650	0.501
NCI-H661	0.651
NCI-H727	0.695
NCI-H838	0.45
NCI-H1355	0.382
NCI-H1437	0.796
NCI-H1563	0.863
NCI-H1651	0.631
NCI-H1666	0.908
NCI-H1734	0.619
NCI-H1755	0.781
NCI-H1792	1.13
NCI-H1915	0.684
NCI-H1944	0.455
NCI-H1975	0.876

Cell Line	relative viability
NCI-H1993	0.585
NCI-H2009	0.71
NCI-H2023	0.354
NCI-H2085	0.748
NCI-H2087	0.517
NCI-H2126	0.66
NCI-H2228	0.563
NCI-H2347	0.369
NCI-H2405	0.624
NCI-H3122	1.03
PC-3 [JPC-3]	0.685
PC-14	1.05
RERF-LC-KJ	0.627
SK-LU-1	0.327
SK-MES-1	0.611
SW 1573	0.619
UMC-11	0.503

Compound: C=CCn1c(=O)c2cnc(Nc3ccc(N4CCN(C)CC4)cc3)nc2n1-c1cccc(C(C)(C)O)n1 [Adavosertib] + C[C@]1(O)C[C@@H](c2nc(-c3ccc4ccc(-c5ccccc5)nc4c3)c3c(N)nccn32)C1 [Linsitinib] (partner 1 µM)
Experiment: as above
Settings: first compound 0.01 µM
Summary of the method: as §1

Cell Line	relative viability
NCI-H520	0.883
NCI-H596	1.04
NCI-H647	1.12
NCI-H650	0.785
NCI-H661	0.609
NCI-H727	0.334
NCI-H838	1.01
NCI-H1355	0.892
NCI-H1437	1.08
NCI-H1563	1.17
NCI-H1651	1.03
NCI-H1666	0.763
NCI-H1734	0.992
NCI-H1755	0.997
NCI-H1792	0.601
NCI-H1915	1.11
NCI-H1944	1.17
NCI-H1975	1

Cell Line	relative viability
NCI-H1993	0.769
NCI-H2009	1.23
NCI-H2023	0.638
NCI-H2085	0.872
NCI-H2087	0.906
NCI-H2126	0.695
NCI-H2228	0.629
NCI-H2347	0.944
NCI-H2405	0.959
NCI-H3122	1.08
PC-3 [JPC-3]	0.903
PC-14	0.915
RERF-LC-KJ	0.925
SK-LU-1	1.19
SK-MES-1	1.03
SW 1573	0.919
UMC-11	0.959

Same assay, conditions: first compound 0.03162 µM

Cell Line	relative viability
NCI-H520	0.794
NCI-H596	1.01
NCI-H647	1.04
NCI-H650	0.926
NCI-H661	0.648
NCI-H727	0.249
NCI-H838	1.05
NCI-H1355	0.701
NCI-H1437	1.11
NCI-H1563	1.24
NCI-H1651	1.02
NCI-H1666	1.14
NCI-H1734	0.953
NCI-H1755	0.956
NCI-H1792	0.519
NCI-H1915	1.12
NCI-H1944	1.13
NCI-H1975	0.951

Cell Line	relative viability
NCI-H1993	0.793
NCI-H2009	1.24
NCI-H2023	0.742
NCI-H2085	0.996
NCI-H2087	1.11
NCI-H2126	0.712
NCI-H2228	0.623
NCI-H2347	0.93
NCI-H2405	0.966
NCI-H3122	0.954
PC-3 [JPC-3]	0.935
PC-14	0.957
RERF-LC-KJ	0.921
SK-LU-1	1.02
SK-MES-1	1.02
SW 1573	0.864
UMC-11	0.99

Same assay, conditions: first compound 0.1 µM

Cell Line	relative viability
NCI-H520	1.11
NCI-H596	1.01
NCI-H647	1.28
NCI-H650	0.87
NCI-H661	0.463
NCI-H727	0.311
NCI-H838	1
NCI-H1355	0.872
NCI-H1437	1.12
NCI-H1563	1.18
NCI-H1651	0.98
NCI-H1666	0.813
NCI-H1734	0.916
NCI-H1755	0.992
NCI-H1792	0.493
NCI-H1915	1.14
NCI-H1944	1.23
NCI-H1975	0.891

Cell Line	relative viability
NCI-H1993	0.797
NCI-H2009	1.24
NCI-H2023	0.505
NCI-H2085	0.988
NCI-H2087	1.07
NCI-H2126	0.703
NCI-H2228	0.76
NCI-H2347	1.09
NCI-H2405	1
NCI-H3122	1.06
PC-3 [JPC-3]	0.929
PC-14	0.942
RERF-LC-KJ	0.848
SK-LU-1	0.77
SK-MES-1	1.1
SW 1573	0.911
UMC-11	1.19

Same assay, conditions: first compound 0.3162 µM

Cell Line	relative viability
NCI-H520	0.874
NCI-H596	1.11
NCI-H647	0.454
NCI-H650	0.712
NCI-H661	0.417
NCI-H727	0.32
NCI-H838	1.09
NCI-H1355	0.808
NCI-H1437	1.09
NCI-H1563	1.2
NCI-H1651	0.783
NCI-H1666	0.754
NCI-H1734	0.938
NCI-H1755	0.997
NCI-H1792	0.559
NCI-H1915	1.17
NCI-H1944	1
NCI-H1975	0.522

Cell Line	relative viability
NCI-H1993	0.749
NCI-H2009	1.2
NCI-H2023	0.392
NCI-H2085	0.827
NCI-H2087	0.87
NCI-H2126	0.722
NCI-H2228	0.395
NCI-H2347	0.914
NCI-H2405	0.995
NCI-H3122	1.06
PC-3 [JPC-3]	0.985
PC-14	0.575
RERF-LC-KJ	0.796
SK-LU-1	0.334
SK-MES-1	0.835
SW 1573	0.886
UMC-11	1.02
